Reference: US20130005650A1 (priority 2011, published 2013)

Experiments:
[1] = biological target: T1, Aβ42 fibrillogenesis (amyloid peptide) (Homo sapiens, UniProt P05067); test: Congo Red spectrophotometric assay of amyloid fibrillogenesis; format: biochemical
T1 construct: purchased Invitrogen (Camarillo, Calif.)
Text: In addition, the inhibition of the oligomerization of amyloid peptide (inhibition of amyloid fibrillogenesis) can be estimated by the method described by Klunk, et al. using Congo Red (Klunk, W. E., Jacob, R. F., Mason, R. P. (1999) “Quantifying amyloid β-peptide aggregation using the congo red-Aβ spectrophotometric assay” Anal. Biochem. 266:66-76).
The inhibition of the oligomerization of amyloid peptide was estimated by the method described by Klunk, et al. using Congo Red (Klunk, W. E., Jacob, R. F., Mason, R. P. (1999) “Quantifying amyloid β-peptide aggregation using the congo red-Aβ spectrophotometric assay” Anal. Biochem. 266, 66-76). Briefly, amyloid peptides were prepared in 40 μM in Tris-Acetate (40 mM:8 mM) buffer. Acriflavine HCl to be tested for inhibition of fibrillogenesis was dissolved in phosphate buffered saline, and then diluted 100 fold into Tris-Acetate buffer. Aliquots of 100 μl of amyloid peptide were incubated with acriflavine at room temperature for 5 days before measuring the absorbance. BSA was included in the buffer as a negative control. […] The absorbance of Congo Red at 541 nm was read using a Perkin-Elmer Victor3 1420 Multilabel Counter. The inhibition of oligomerization was calculated using the following formula: Inhibition=(Abs541 of sample-Abs541 of control)/(Abs541 of Amyloid peptide-Abs541 of BSA).

microorganisms = conditions: generally; cited from earlier work
[2] = cited from earlier work
[3] = human; cited from earlier work
[4] = biological target: yeast prion protein Sup-NM (Saccharomyces cerevisiae, UniProt P05453); format: biochemical; conditions: thioflavin T fluorescence, 25° C.
Chain of yeast prion protein Sup-NM (P05453 1-254 limits assumed): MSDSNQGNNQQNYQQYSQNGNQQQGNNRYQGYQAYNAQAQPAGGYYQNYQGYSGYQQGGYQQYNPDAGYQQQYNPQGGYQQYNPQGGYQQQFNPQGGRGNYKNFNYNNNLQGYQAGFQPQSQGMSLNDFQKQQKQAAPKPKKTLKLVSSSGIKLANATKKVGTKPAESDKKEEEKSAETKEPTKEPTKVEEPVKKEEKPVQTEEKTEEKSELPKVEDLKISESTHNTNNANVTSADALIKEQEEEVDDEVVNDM

amyloid fibrils = biological target: T2, amyloid fibrils (Homo sapiens, UniProt P05067); test: Incubation of acriflavine with amyloid fibrils (fibril dissociation); format: biochemical; conditions: in vitro
T2 construct: effective to reduce or reverse amyloid fibril formation (Aβ42 fibrillogenesis) in vitro
T2 sequence (P05067 672-713 limits assumed): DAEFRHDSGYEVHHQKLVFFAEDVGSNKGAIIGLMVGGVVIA

[5] = system: PSI^+ induction in yeast cells; test: PSI^+ induction assay in yeast; format: cell-based; conditions: FIG. 2; 24 h, 50 μM copper sulfate, 30° C.

T1 sequence (P05067 672-713 limits assumed): as above

Acriflavine HCl
inhibition of amyloid fibrillogenesis ([1]; FIG. 1, Aβ42): concentration-dependent inhibition | IC50 for inhibition of fibrillogenesis ([1]; amyloid peptide 40 μM, room temperature, 5 days, Congo Red Abs 541 nm): approximately 1.7 μg/mL

Acriflavine neutral
concentration inhibiting the growth of microorganisms (microorganisms): 10^−4 to 10^−5 M | toxicity ([2]; clinically used dosage range): low toxicity | effect on hematopoietic system and liver ([2]; repetitive administrations for a prolonged period): does not suppress the hematopoietic system, nor damage the liver

acriflavine
crossing of the blood-brain barrier [3]: able to cross the blood-brain barrier | inhibition of amyloid formation of yeast prion protein Sup-NM [4]: inhibit in a dose-dependent manner | amount of amyloid peptide monomer after incubation with amyloid fibrils (amyloid fibrils): increase in the amount of amyloid peptide monomer | inhibition of PSI^+ induction in yeast cells [5]: concentration dependent inhibition
